Results on 26 compounds are retold here after patent US20090247559A1 (Exelixis, Inc., priority 2007, published 2009).

pIC50: −log10 of the molar value. Structures can show the parent of a compound that is named as a salt. Where two headings read alike, the source gives them in different places. A value given as a limit tells only on which side of the number the result lay.

For one experiment, the target named is CDC7 (Homo sapiens, UniProt O00311). Nature of the experiment: CDC7 inhibition, biochemical chemiluminescence assay (Kinase Glo, IC50 determination). The procedure, abridged:
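CDC7 enzyme preincubated with compound 10 min at ambient temperature, then ATP mix in Tris Base added; reaction 90 min at 24-27 °C. Remaining ATP quantified by Kinase Glo luminescence to give IC50.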
In general terms: Kinase-Glo reads ATP consumption through a luciferase reaction.

Another experiment deals with CK2 (Homo sapiens, UniProt P68400). Nature of the experiment: CK2 inhibition, biochemical chemiluminescence holoenzyme assay (Kinase Glo, IC50 determination). The note with it: Table 1 activity class; symbol given only if active; read-out: CK2 IC50 (Activity C). An outline of the steps:
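Holoenzyme CK2 assay; compounds pre-incubated with substrate and enzyme, then reacted 150 min at 24-27° C. Remaining ATP measured as luminescence with Kinase Glo, and IC50 derived from the signal.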

Experiment [1] addresses PIM (PIM-1, PIM-2, and/or PIM-3). Nature of the experiment: PIM-1, PIM-2 and PIM-3 inhibition, biochemical chemiluminescence assays (Kinase Glo, IC50 determination). To be noted: Table 1 activity class; PIM refers to PIM-1, PIM-2, and/or PIM-3; read-out: PIM IC50 (Activity B).
The mark [2] stands for this setting: Table 1 activity class, symbol given only if active, read-out: CDC7 IC50 (Activity A).
Setting [3] is: compounds in Table 1, read-out: CDC7 IC50 value.
[4] abbreviates: CDC7 IC50 (Activity A), Table 1 activity class, symbol given only if active.

CK2, sequence (P68400 whole entry): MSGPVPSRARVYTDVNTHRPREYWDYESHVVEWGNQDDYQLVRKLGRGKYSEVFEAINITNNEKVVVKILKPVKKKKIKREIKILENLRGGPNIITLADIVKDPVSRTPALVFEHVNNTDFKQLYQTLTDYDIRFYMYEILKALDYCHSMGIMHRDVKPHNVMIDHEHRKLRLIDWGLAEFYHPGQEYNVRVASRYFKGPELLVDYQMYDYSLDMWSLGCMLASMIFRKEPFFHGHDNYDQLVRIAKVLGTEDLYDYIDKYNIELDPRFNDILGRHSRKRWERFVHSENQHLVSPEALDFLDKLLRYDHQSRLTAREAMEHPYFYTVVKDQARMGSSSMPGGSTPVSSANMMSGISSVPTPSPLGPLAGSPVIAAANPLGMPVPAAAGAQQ
CK2, sequence (P67870 whole entry partner): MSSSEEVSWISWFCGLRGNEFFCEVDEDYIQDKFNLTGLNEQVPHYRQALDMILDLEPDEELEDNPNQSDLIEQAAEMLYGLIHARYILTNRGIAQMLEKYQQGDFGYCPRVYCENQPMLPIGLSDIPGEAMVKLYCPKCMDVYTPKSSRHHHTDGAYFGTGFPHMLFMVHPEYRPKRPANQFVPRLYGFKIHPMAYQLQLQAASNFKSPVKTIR
CDC7, sequence (O00311 whole entry): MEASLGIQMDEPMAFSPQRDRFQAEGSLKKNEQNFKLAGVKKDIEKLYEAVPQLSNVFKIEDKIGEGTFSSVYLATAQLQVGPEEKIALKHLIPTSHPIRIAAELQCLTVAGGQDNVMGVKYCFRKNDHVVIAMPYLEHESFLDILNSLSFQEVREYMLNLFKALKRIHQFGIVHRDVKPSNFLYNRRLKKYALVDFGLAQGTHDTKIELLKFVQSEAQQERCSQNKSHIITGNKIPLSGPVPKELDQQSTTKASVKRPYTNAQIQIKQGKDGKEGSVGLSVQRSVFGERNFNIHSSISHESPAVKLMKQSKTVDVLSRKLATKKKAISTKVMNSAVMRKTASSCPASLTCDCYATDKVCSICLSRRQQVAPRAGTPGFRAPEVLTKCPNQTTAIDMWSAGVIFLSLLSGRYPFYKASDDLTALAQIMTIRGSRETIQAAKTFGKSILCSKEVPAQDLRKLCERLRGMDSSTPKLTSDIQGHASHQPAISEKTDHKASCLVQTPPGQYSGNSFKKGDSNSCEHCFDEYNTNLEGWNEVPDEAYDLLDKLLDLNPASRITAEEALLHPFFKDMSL
CDC7, sequence (Q9UBU7 whole entry partner): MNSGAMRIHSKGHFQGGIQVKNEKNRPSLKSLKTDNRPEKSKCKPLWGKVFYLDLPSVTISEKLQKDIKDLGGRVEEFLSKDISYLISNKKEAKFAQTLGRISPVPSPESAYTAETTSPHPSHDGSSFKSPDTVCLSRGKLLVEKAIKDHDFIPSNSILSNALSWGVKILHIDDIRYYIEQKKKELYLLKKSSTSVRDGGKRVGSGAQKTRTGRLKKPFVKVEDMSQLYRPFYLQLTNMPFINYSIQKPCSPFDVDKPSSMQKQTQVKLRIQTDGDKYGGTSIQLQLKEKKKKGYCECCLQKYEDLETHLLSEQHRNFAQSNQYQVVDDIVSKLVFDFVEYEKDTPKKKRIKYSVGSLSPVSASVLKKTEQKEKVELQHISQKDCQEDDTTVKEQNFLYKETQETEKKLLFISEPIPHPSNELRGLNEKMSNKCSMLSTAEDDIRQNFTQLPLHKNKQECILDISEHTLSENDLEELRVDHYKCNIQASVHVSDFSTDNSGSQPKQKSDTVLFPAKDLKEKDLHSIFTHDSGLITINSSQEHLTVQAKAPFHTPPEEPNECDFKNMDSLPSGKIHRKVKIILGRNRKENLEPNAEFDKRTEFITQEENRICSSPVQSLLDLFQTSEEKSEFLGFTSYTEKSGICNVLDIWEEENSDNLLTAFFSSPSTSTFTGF

As to `O=c1c2oc3ccc(Br)cc3c2nc2n1CN1CCC[C@@H]21` [Compound 453, (13bS)-11-bromo-1,2,3,13b-tetrahydro-7H-[1]benzofuro[3,2-d]pyrrolo[1′,2′:3,4]imidazo[1,5-a]pyrimidin-7-one], the negative-log IC50 (pIC50) was greater than 5.00 at CDC7 (setting [2]), greater than 7.00 on CDC7 (setting [3]), greater than 5.00 at CK2 and greater than 5.00 in experiment [1].
Consider `C#Cc1ccc2oc3c(=O)[nH]c(CN4CC[C@H](O)C4)nc3c2c1` [Compound 458, 8-ethynyl-2-{[(3S)-3-hydroxypyrrolidin-1-yl]methyl}[1]benzofuro[3,2-d]pyrimidin-4(3H)-one], for which the pIC50 at CDC7 (setting [2]) was greater than 5.00; on CDC7 (setting [3]), greater than 7.00; on CK2, greater than 5.00; in experiment [1], greater than 5.00.
Regarding `C[Si](C)(C)C#Cc1ccc2oc3c(=O)[nH]c(CN4CC[C@H](O)C4)nc3c2c1` [Compound 459, 2-{[(3S)-3-hydroxypyrrolidin-1-yl]methyl}-8-[(trimethylsilyl)ethynyl][1]benzofuro[3,2-d]pyrimidin-4(3H)-one], the negative-log IC50 (pIC50) (at CDC7 (setting [4]); on CK2; in experiment [1]) was greater than 5.00 throughout.
For the compound `CCc1ccc2oc3c(=O)[nH]c(CN4CC[C@H](O)C4)nc3c2c1` [Compound 460, 8-ethyl-2-{[(3S)-3-hydroxypyrrolidin-1-yl]methyl}[1]benzofuro[3,2-d]pyrimidin-4(3H)-one], the pIC50 (at CDC7 (setting [2]); on CK2; in experiment [1]) was greater than 5.00 each time.
For `CC(C)COc1cccc2oc3c(=O)[nH]c(CN4CC[C@H](O)C4)nc3c12` [Compound 469, 2-{[(3S)-3-hydroxypyrrolidin-1-yl]methyl}-9-[(2-methylpropyl)oxy][1]benzofuro[3,2-d]pyrimidin-4(3H)-one], the negative logarithm of the IC50 (pIC50) (at CDC7 (setting [2]); at CK2; in experiment [1]) was greater than 5.00 each time.
Consider `O=c1[nH]c([C@@H]2CCCN2)nc2c1oc1ccc(Br)cc12` [Compound 470, 8-bromo-2-[(2S)-pyrrolidin-2-yl][1]benzofuro[3,2-d]pyrimidin-4(3H)-one], for which the negative-log IC50 (pIC50) at CDC7 (setting [2]) is greater than 5.00; on CDC7 (setting [3]), greater than 7.00; on CK2, greater than 5.00; in experiment [1] it was greater than 5.00.
For the compound `O=c1[nH]c([C@H]2CCCN2)nc2c1oc1ccc(Br)cc12` [Compound 471, 8-bromo-2-[(2R)-pyrrolidin-2-yl][1]benzofuro[3,2-d]pyrimidin-4(3H)-one], the negative logarithm of the IC50 (pIC50) is greater than 5.00 at CDC7 (setting [2]), greater than 7.00 on CDC7 (setting [3]), greater than 5.00 at CK2 and greater than 5.00 in experiment [1].
With `O=c1[nH]c(CN2CC[C@H](O)C2)nc2c1oc1ccc3c(c12)OCO3` [Compound 476, 9-{[(3S)-3-hydroxypyrrolidin-1-yl]methyl}[1,3]dioxolo[4,5][1]benzofuro[3,2-d]pyrimidin-7(8H)-one], the pIC50 was greater than 5.00 at CDC7 (setting [2]), greater than 7.00 on CDC7 (setting [3]), greater than 5.00 at CK2 and greater than 5.00 in experiment [1].
As to `O=c1[nH]c([C@@H]2C[C@@H](O)CN2)nc2c1oc1ccc(Br)cc12` [Compound 488, 8-bromo-2-[(2S,4R)-4-hydroxypyrrolidin-2-yl][1]benzofuro[3,2-d]pyrimidin-4(3H)-one], the negative-log IC50 (pIC50) at CDC7 (setting [2]) was greater than 5.00; at CDC7 (setting [3]), greater than 7.00; on CK2, greater than 5.00; in experiment [1], greater than 5.00.
Take `N[C@@H](c1ccccc1)c1nc2c(oc3ccc(Br)cc32)c(=O)[nH]1` [Compound 489, 2-[(S)-amino(phenyl)methyl]-8-bromo[1]benzofuro[3,2-d]pyrimidin-4(3H)-one]: the pIC50 at CDC7 (setting [2]) is greater than 5.00; on CDC7 (setting [3]) it was greater than 7.00; at CK2 it was greater than 5.00; in experiment [1] it was greater than 5.00.
Consider `N[C@H](c1ccccc1)c1nc2c(oc3ccc(Br)cc32)c(=O)[nH]1` [Compound 490, 2-[(R)-amino(phenyl)methyl]-8-bromo[1]benzofuro[3,2-d]pyrimidin-4(3H)-one], for which the negative logarithm of the IC50 (pIC50) was greater than 5.00 on CDC7 (setting [2]), greater than 7.00 at CDC7 (setting [3]), greater than 5.00 on CK2 and greater than 5.00 in experiment [1].
For the compound `C[C@H](N)c1nc2c(oc3ccc(Br)cc32)c(=O)[nH]1` [Compound 492, 2-[(1S)-1-aminoethyl]-8-bromo[1]benzofuro[3,2-d]pyrimidin-4(3H)-one], the negative-log IC50 (pIC50) was greater than 5.00 on CDC7 (setting [2]), greater than 7.00 at CDC7 (setting [3]), greater than 5.00 at CK2 and greater than 5.00 in experiment [1].
Consider `C[C@@H](N)c1nc2c(oc3ccc(Br)cc32)c(=O)[nH]1` [Compound 493, 2-[(1R)-1-aminoethyl]-8-bromo[1]benzofuro[3,2-d]pyrimidin-4(3H)-one], for which the negative-log IC50 (pIC50) at CDC7 (setting [2]) was greater than 5.00; on CDC7 (setting [3]) it was greater than 7.00; on CK2 it was greater than 5.00; in experiment [1], greater than 5.00.
For `CC(C)NCc1nc2c(oc3ccc(Br)cc32)c(=O)[nH]1` [Compound 496, 8-bromo-2-{[(1-methylethyl)amino]methyl}[1]benzofuro[3,2-d]pyrimidin-4(3H)-one], the pIC50 on CDC7 (setting [2]) is greater than 5.00; at CDC7 (setting [3]) it was greater than 7.00; at CK2 it was greater than 5.00; in experiment [1] it was greater than 5.00.
With `C[C@H](O)c1nc2c(oc3ccc(Br)cc32)c(=O)[nH]1` [Compound 497, 8-bromo-2-[(1S)-1-hydroxyethyl][1]benzofuro[3,2-d]pyrimidin-4(3H)-one], the negative logarithm of the IC50 (pIC50) (at CDC7 (setting [2]); on CK2; in experiment [1]) was greater than 5.00 in each case.
For `O=c1[nH]c(CN2CC[C@H](CO)C2)nc2c1oc1ccc(Br)cc12` [Compound 498, 8-bromo-2-{[(3S)-3-(hydroxymethyl)pyrrolidin-1-yl]methyl}[1]benzofuro[3,2-d]pyrimidin-4(3H)-one], the pIC50 at CDC7 (setting [2]) was greater than 5.00; at CDC7 (setting [3]), greater than 7.00; on CK2 it was greater than 5.00; in experiment [1], greater than 5.00.
As for `O=c1[nH]c(C2CCCO2)nc2c1oc1ccc(Br)cc12` (stereo not drawn) [Compound 499, 8-bromo-2-(tetrahydrofuran-2-yl)[1]benzofuro[3,2-d]pyrimidin-4(3H)-one], the negative-log IC50 (pIC50) (on CDC7 (setting [2]); on CK2; in experiment [1]) was greater than 5.00 in each case.
As for `O=c1[nH]c([C@@H]2CSCN2)nc2c1oc1ccc(Br)cc12` [Compound 500, 8-bromo-2-[(4R)-1,3-thiazolidin-4-yl][1]benzofuro[3,2-d]pyrimidin-4(3H)-one], the pIC50 (on CDC7 (setting [2]); on CK2; in experiment [1]) was greater than 5.00 each time.
Consider `O=c1[nH]c([C@@H]2CC3CCCCC3N2)nc2c1oc1ccc(Br)cc12` (stereo partly drawn) [Compound 501, 8-bromo-2-[(2S)-octahydro-1H-indol-2-yl][1]benzofuro[3,2-d]pyrimidin-4(3H)-one], for which the pIC50 against CDC7 (setting [4]) was greater than 5.00; on CDC7 (CDC7 IC50 value, compounds in Table 1) it was greater than 7.00; on CK2, greater than 5.00; in experiment [1] it was greater than 5.00.
For the compound `CCC(CC)NCc1nc2c(oc3ccc(Br)cc32)c(=O)[nH]1` [Compound 502, 8-bromo-2-{[(1-ethylpropyl)amino]methyl}[1]benzofuro[3,2-d]pyrimidin-4(3H)-one], the pIC50 at CDC7 (setting [2]) was greater than 5.00; on CDC7 (setting [3]) it was greater than 7.00; at CK2 it was greater than 5.00; in experiment [1], greater than 5.00.
Consider `CC(C)(C)NCc1nc2c(oc3ccc(Br)cc32)c(=O)[nH]1` [Compound 503, 8-bromo-2-{[(1,1-dimethylethyl)amino]methyl}[1]benzofuro[3,2-d]pyrimidin-4(3H)-one], for which the negative-log IC50 (pIC50) at CDC7 (setting [2]) was greater than 5.00; at CDC7 (setting [3]), greater than 7.00; at CK2, greater than 5.00; in experiment [1], greater than 5.00.
As to `O=c1[nH]c(CNC2CCCCC2)nc2c1oc1ccc(Br)cc12` [Compound 504, 8-bromo-2-[(cyclohexylamino)methyl][1]benzofuro[3,2-d]pyrimidin-4(3H)-one], the pIC50 (at CDC7 (setting [2]); on CK2; in experiment [1]) was greater than 5.00 in each case.
As for `O=c1[nH]c([C@@H]2C=CCN2)nc2c1oc1ccc(Br)cc12` [Compound 505, 8-bromo-2-[(2S)-2,5-dihydro-1H-pyrrol-2-yl][1]benzofuro[3,2-d]pyrimidin-4(3H)-one], the negative logarithm of the IC50 (pIC50) on CDC7 (setting [2]) was greater than 5.00; at CDC7 (setting [3]) it was greater than 7.00; at CK2, greater than 5.00; in experiment [1], greater than 5.00.
In the case of `O=c1[nH]c([C@@H]2CCCN2)nc2c1oc1ccccc12` [Compound 506, 2-[(2S)-pyrrolidin-2-yl][1]benzofuro[3,2-d]pyrimidin-4(3H)-one], the negative-log IC50 (pIC50) (on CDC7 (setting [2]); at CK2; in experiment [1]) was greater than 5.00 in each case.
With `O=c1[nH]c([C@@H]2CCCN2)nc2c1oc1ccc(Cl)cc12` [Compound 507, 8-Chloro-2-[(2S)-pyrrolidin-2-yl][1]benzofuro[3,2-d]pyrimidin-4(3H)-one Hydrochloride], the pIC50 on CDC7 (setting [2]) is greater than 5.00; on CDC7 (setting [3]), greater than 7.00; on CK2 it was greater than 5.00; in experiment [1], greater than 5.00.
On to `CC(c1nc2c(oc3ccc(Br)cc32)c(=O)[nH]1)N1CC[C@H](O)C1` (stereo partly drawn) [Compound 508, 8-bromo-2-{1-[(3S)-3-hydroxypyrrolidin-1-yl]ethyl}[1]benzofuro[3,2-d]pyrimidin-4(3H)-one], for which the negative-log IC50 (pIC50) on CDC7 (setting [2]) is greater than 5.00; at CDC7 (setting [3]), greater than 7.00; at CK2, greater than 5.00; in experiment [1], greater than 5.00.

As usually defined, the pIC50 is −log10 of the IC50, conventionally taken in molar units.
